According to the NIST ThermoML archive (doi:10.1016/j.fluid.2011.02.015):
± gives the expanded uncertainty stated by the source.

Settings: Liquid, hot wire

`FC(F)(F)CC(F)(F)F` [1,1,1,3,3,3-hexafluoropropane] showed a thermal conductivity (252.57 K, 10000 kPa) of 0.0912 ± 0.0045 W/m/K, a thermal conductivity (252.8 K, 5000 kPa) of 0.0891 ± 0.0045 W/m/K and a thermal conductivity (252.87 K, 100 kPa) of 0.0873 ± 0.0044 W/m/K. The thermal conductivity (252.92 K, 10000 kPa) was 0.0914 ± 0.0046 W/m/K, the thermal conductivity (253.16 K, 5000 kPa) was 0.0887 ± 0.0044 W/m/K and the thermal conductivity (253.24 K, 20000 kPa) was 0.0955 ± 0.0047 W/m/K. The thermal conductivity (253.38 K, 100 kPa) was 0.0872 ± 0.0044 W/m/K, the thermal conductivity (253.41 K, 30000 kPa) was 0.0972 ± 0.0048 W/m/K and the thermal conductivity (253.47 K, 20000 kPa) was 0.0949 ± 0.0047 W/m/K. The thermal conductivity (253.51 K, 20000 kPa) was 0.0952 ± 0.0047 W/m/K, the thermal conductivity (253.6 K, 10000 kPa) was 0.0911 ± 0.0045 W/m/K and the thermal conductivity (253.65 K, 5000 kPa) was 0.0891 ± 0.0045 W/m/K. It also gave a thermal conductivity (253.66 K, 100 kPa) of 0.0872 ± 0.0044 W/m/K, a thermal conductivity (253.86 K, 30000 kPa) of 0.0971 ± 0.0048 W/m/K and a thermal conductivity (255.05 K, 30000 kPa) of 0.0973 ± 0.0048 W/m/K. For the same compound, the thermal conductivity (272.91 K, 30000 kPa) was 0.0926 ± 0.0046 W/m/K, the thermal conductivity (273.36 K, 10000 kPa) was 0.0847 ± 0.0043 W/m/K and the thermal conductivity (273.45 K, 20000 kPa) was 0.0896 ± 0.0045 W/m/K. For the same compound, the thermal conductivity (273.49 K, 1000 kPa) was 0.0814 ± 0.0041 W/m/K, the thermal conductivity (273.66 K, 10000 kPa) was 0.0851 ± 0.0043 W/m/K and the thermal conductivity (273.82 K, 5000 kPa) was 0.0833 ± 0.0042 W/m/K. For the same compound, the thermal conductivity (273.85 K, 1000 kPa) was 0.081 ± 0.004 W/m/K, the thermal conductivity (273.86 K, 1000 kPa) was 0.0812 ± 0.0041 W/m/K and the thermal conductivity (273.95 K, 30000 kPa) was 0.0929 ± 0.0046 W/m/K. For the same compound, the thermal conductivity (274.06 K, 20000 kPa) was 0.0895 ± 0.0045 W/m/K, the thermal conductivity (274.16 K, 5000 kPa) was 0.0832 ± 0.0042 W/m/K and the thermal conductivity (274.27 K, 10000 kPa) was 0.0855 ± 0.0043 W/m/K. The thermal conductivity (274.33 K, 30000 kPa) was 0.0927 ± 0.0046 W/m/K, the thermal conductivity (274.57 K, 20000 kPa) was 0.0892 ± 0.0045 W/m/K and the thermal conductivity (274.63 K, 5000 kPa) was 0.0835 ± 0.0042 W/m/K. It also gave a thermal conductivity (293.15 K, 10000 kPa) of 0.0802 ± 0.0041 W/m/K, a thermal conductivity (293.22 K, 1000 kPa) of 0.0762 ± 0.0039 W/m/K and a thermal conductivity (293.42 K, 30000 kPa) of 0.0894 ± 0.0045 W/m/K. It also gave a thermal conductivity (293.49 K, 1000 kPa) of 0.0767 ± 0.004 W/m/K, a thermal conductivity (293.61 K, 5000 kPa) of 0.0782 ± 0.004 W/m/K and a thermal conductivity (293.65 K, 10000 kPa) of 0.0805 ± 0.0041 W/m/K. For the same compound, the thermal conductivity (293.76 K, 5000 kPa) was 0.0781 ± 0.004 W/m/K, the thermal conductivity (293.76 K, 30000 kPa) was 0.0891 ± 0.0045 W/m/K and the thermal conductivity (293.85 K, 10000 kPa) was 0.0802 ± 0.0041 W/m/K. It also gave a thermal conductivity (293.95 K, 5000 kPa) of 0.0783 ± 0.004 W/m/K, a thermal conductivity (294.47 K, 1000 kPa) of 0.0764 ± 0.0039 W/m/K and a thermal conductivity (294.54 K, 30000 kPa) of 0.0893 ± 0.0045 W/m/K. The thermal conductivity (312.5 K, 5000 kPa) was 0.0705 ± 0.0037 W/m/K, the thermal conductivity (312.59 K, 1000 kPa) was 0.0682 ± 0.0036 W/m/K and the thermal conductivity (312.89 K, 5000 kPa) was 0.0709 ± 0.0037 W/m/K. It also gave a thermal conductivity (313.01 K, 1000 kPa) of 0.0683 ± 0.0036 W/m/K, a thermal conductivity (313.28 K, 5000 kPa) of 0.0706 ± 0.0037 W/m/K and a thermal conductivity (313.39 K, 1000 kPa) of 0.068 ± 0.0036 W/m/K. The thermal conductivity (313.53 K, 20000 kPa) was 0.0809 ± 0.0041 W/m/K, the thermal conductivity (313.55 K, 10000 kPa) was 0.0757 ± 0.0039 W/m/K and the thermal conductivity (313.85 K, 10000 kPa) was 0.0761 ± 0.0039 W/m/K. It also gave a thermal conductivity (313.86 K, 30000 kPa) of 0.0853 ± 0.0043 W/m/K, a thermal conductivity (314.04 K, 10000 kPa) of 0.0758 ± 0.0039 W/m/K and a thermal conductivity (314.06 K, 30000 kPa) of 0.085 ± 0.004 W/m/K. It also gave a thermal conductivity (314.2 K, 20000 kPa) of 0.0809 ± 0.0041 W/m/K, a thermal conductivity (315.13 K, 20000 kPa) of 0.0815 ± 0.0042 W/m/K and a thermal conductivity (315.13 K, 30000 kPa) of 0.0852 ± 0.0043 W/m/K. For the same compound, the thermal conductivity (332.48 K, 10000 kPa) was 0.0699 ± 0.0037 W/m/K, the thermal conductivity (332.49 K, 5000 kPa) was 0.0654 ± 0.0035 W/m/K and the thermal conductivity (332.51 K, 1000 kPa) was 0.0623 ± 0.0034 W/m/K. It also gave a thermal conductivity (332.72 K, 30000 kPa) of 0.0805 ± 0.0041 W/m/K, a thermal conductivity (332.79 K, 20000 kPa) of 0.0756 ± 0.0039 W/m/K and a thermal conductivity (332.84 K, 30000 kPa) of 0.0813 ± 0.0041 W/m/K. For the same compound, the thermal conductivity (332.85 K, 10000 kPa) was 0.0695 ± 0.0037 W/m/K, the thermal conductivity (332.87 K, 1000 kPa) was 0.0624 ± 0.0034 W/m/K and the thermal conductivity (332.89 K, 5000 kPa) was 0.0651 ± 0.0035 W/m/K. The thermal conductivity (333.2 K, 10000 kPa) was 0.0695 ± 0.0037 W/m/K, the thermal conductivity (333.24 K, 1000 kPa) was 0.0623 ± 0.0034 W/m/K and the thermal conductivity (333.26 K, 5000 kPa) was 0.0648 ± 0.0035 W/m/K. For the same compound, the thermal conductivity (333.48 K, 30000 kPa) was 0.0802 ± 0.0041 W/m/K, the thermal conductivity (333.59 K, 20000 kPa) was 0.0755 ± 0.0039 W/m/K and the thermal conductivity (334.42 K, 20000 kPa) was 0.0761 ± 0.0039 W/m/K. It also gave a thermal conductivity (353.02 K, 30000 kPa) of 0.0749 ± 0.0039 W/m/K, a thermal conductivity (353.17 K, 10000 kPa) of 0.0636 ± 0.0034 W/m/K and a thermal conductivity (353.29 K, 20000 kPa) of 0.0705 ± 0.0037 W/m/K. The thermal conductivity (353.35 K, 2000 kPa) was 0.0565 ± 0.0032 W/m/K, the thermal conductivity (353.35 K, 5000 kPa) was 0.0593 ± 0.0033 W/m/K and the thermal conductivity (353.57 K, 30000 kPa) was 0.0744 ± 0.0039 W/m/K. It also gave a thermal conductivity (353.68 K, 2000 kPa) of 0.0564 ± 0.0032 W/m/K, a thermal conductivity (353.74 K, 5000 kPa) of 0.0592 ± 0.0033 W/m/K and a thermal conductivity (353.74 K, 20000 kPa) of 0.0701 ± 0.0037 W/m/K. The thermal conductivity (353.82 K, 10000 kPa) was 0.0635 ± 0.0034 W/m/K, the thermal conductivity (353.95 K, 30000 kPa) was 0.0741 ± 0.0039 W/m/K and the thermal conductivity (354.09 K, 20000 kPa) was 0.0699 ± 0.0037 W/m/K. It also gave a thermal conductivity (354.12 K, 2000 kPa) of 0.056 ± 0.0032 W/m/K, a thermal conductivity (354.24 K, 10000 kPa) of 0.0633 ± 0.0034 W/m/K and a thermal conductivity (354.4 K, 5000 kPa) of 0.0594 ± 0.0033 W/m/K. For the same compound, the thermal conductivity (373.08 K, 10000 kPa) was 0.0597 ± 0.0033 W/m/K, the thermal conductivity (373.15 K, 30000 kPa) was 0.0726 ± 0.0038 W/m/K and the thermal conductivity (373.22 K, 5000 kPa) was 0.0554 ± 0.0031 W/m/K. For the same compound, the thermal conductivity (373.4 K, 20000 kPa) was 0.0672 ± 0.0036 W/m/K, the thermal conductivity (373.46 K, 3000 kPa) was 0.0525 ± 0.003 W/m/K and the thermal conductivity (373.56 K, 10000 kPa) was 0.0596 ± 0.0033 W/m/K. For the same compound, the thermal conductivity (373.72 K, 5000 kPa) was 0.0559 ± 0.0031 W/m/K, the thermal conductivity (373.8 K, 30000 kPa) was 0.0727 ± 0.0038 W/m/K and the thermal conductivity (373.84 K, 3000 kPa) was 0.0524 ± 0.003 W/m/K. It also gave a thermal conductivity (373.87 K, 20000 kPa) of 0.0677 ± 0.0036 W/m/K, a thermal conductivity (374.1 K, 10000 kPa) of 0.0601 ± 0.0033 W/m/K and a thermal conductivity (374.21 K, 30000 kPa) of 0.0724 ± 0.0038 W/m/K. It also gave a thermal conductivity (374.24 K, 5000 kPa) of 0.0557 ± 0.0031 W/m/K, a thermal conductivity (374.26 K, 3000 kPa) of 0.0526 ± 0.003 W/m/K and a thermal conductivity (374.57 K, 20000 kPa) of 0.0672 ± 0.0036 W/m/K.
